According to patent US20170275302A1, “INHIBITORS OF THE RENAL OUTER MEDULLARY POTASSIUM CHANNEL” (Merck Sharp & Dohme Corp., priority 2014, published 2017):

Molecular target: T1, hROMK (hKir1.1) (Homo sapiens, UniProt P48048)
T1 construct: expressed in transfected cells
T1 sequence (P48048 1-391): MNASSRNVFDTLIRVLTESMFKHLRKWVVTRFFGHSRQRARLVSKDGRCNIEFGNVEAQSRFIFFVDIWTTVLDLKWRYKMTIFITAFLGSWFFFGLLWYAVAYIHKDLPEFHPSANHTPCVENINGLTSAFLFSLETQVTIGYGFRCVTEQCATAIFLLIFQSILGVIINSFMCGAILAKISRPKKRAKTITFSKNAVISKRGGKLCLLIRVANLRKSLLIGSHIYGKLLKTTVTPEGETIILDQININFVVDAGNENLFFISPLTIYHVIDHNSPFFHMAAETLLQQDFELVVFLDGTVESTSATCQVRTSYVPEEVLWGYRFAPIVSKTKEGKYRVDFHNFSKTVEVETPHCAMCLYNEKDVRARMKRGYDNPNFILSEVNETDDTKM
Test: Thallium Flux Assay (ROMK channel functional thallium flux assay, FLIPR-Tetra)
Type: cell-based
Details: HEK293 cells stably expressing hROMK (hKir1.1); FluxOR thallium flux, 30 min compound incubation; concentration inhibiting 50% of ROMK thallium flux signal
Experimental: The following Thallium Flux Assay was performed on each of the final product compounds in the Examples.
HEK293 cells stably expressing hROMK (hKir1.1) were grown at 37° C. in a 10% CO2 humidified incubator in complete growth media: Dulbecco's Modified Eagle Medium supplemented with non-essential amino acids, Penicillin/Streptomycin/Glutamine, G418 and FBS. At >80% confluency, the media was aspirated from the flask and rinsed with 10 mL calcium/magnesium-free phosphate buffered saline (PBS). 5 mL of 1× trypsin (prepared in Ca/Mg Free PBS) was added to T-225 flask and the flask was returned to 37° C./CO2 incubator for 2-3 minutes. To dislodge the cells, the side of the flask was gently banged with one's hand. The cells were completely titrated and then the cells were transferred to 25 mL complete media, centrifuged at 1,500 rpm for 6 min followed by resuspension in complete growth media, and the cell concentration was determined. For typical re-seeding, 4E6 cells/T-225 flask will attain >80% confluency in 4 days. Under ideal growth conditions and appropriate tissue culture practices, this cell line is stable for 40-45 passages.
Compound Buffer (per microplate): 20 mL Probenecid/Assay Buffer; 0.3 mM ouabain (10 mM ouabain in water can be stored in amber bottle/aluminum foil at room temperature); Test compound
Stimulant Buffer (prepared at 5× final concentration in 1× FluxOR™Chloride-Free Buffer): 7.5 mM thallium sulfate and 0.75 mM potassium sulfate (to give a final assay concentration of 3 mM Thallium/0.3 mM potassium). Store at 4° C. when not in use. If kept sterile, this solution is good for months.
The ROMK channel functional thallium flux assay was performed in 384 wells, using the FLIPR-Tetra instrument. HEK-hKir1.1 cells were seeded in Poly-D-Lysine microplates and kept in a 37° C.-10% CO2 incubator overnight. On the day of the experiment, the growth media was replaced with the FluxOR™ reagent loading buffer and incubated, protected from light, at ambient temperature (23-25° C.) for 90 min. The loading buffer was replaced with assay buffer±test compound followed by 30 min incubation at ambient temperature, where the thallium/potassium stimulant was added to the microplate.
• 1. Seed HEK-hKir1.1 cells (50 μl at 20,000 cells/well) in 384-well PDL coated Microplates • 2. Allow cells to adhere overnight in humidified 37° C./10% CO2 incubator • 3. Completely remove cell growth media from microplate and replace with 25 μl loading buffer • 4. Incubate Microplate at room temperature, protected form light, for 90 min • 5. Remove loading buffer and replace with 25 μl 1× Assay Buffer±test compound. • 6. Incubate microplate at room temperature, protected from light, for 30 min • 7. At FLIPR-Tetra 384: Add stimulant (thallium/potassium) solution to microplate and monitor fluorescence. Excitation=400 nm, Emission=460 & 580 nm. Collect data for ˜10 min.
The fluorescence intensity of wells containing 3 μM of a standard control ROMK inhibitor of the present invention was used to define the ROMK-sensitive component of thallium flux. Fluorescence in the presence of test compounds was normalized to control values to provide % fluorescence change. IC50 values represent the concentration of compound that inhibited 50% of the ROMK thallium flux signal.

SMILES	IC50 [µM]
Cc1c([C@@H](O)CN2CCC3(CC2)CCN(c2cc4cncnc4s2)C3=O)ccc2c1COC2=O [Example 36]	0.19
Cc1c([C@@H](O)CN2CCC3(CC2)CCN(c2cc4cnccc4s2)C3=O)ccc2c1COC2=O [Example 37]	0.117
Cc1c([C@@H](O)CN2CCC3(CC2)CCN(c2ccnc4c2OCO4)C3=O)ccc2c1COC2=O [Example 38, (R)-2-([1,3]dioxolo[4,5-b]pyridin-7-yl)-8-(2-hydroxy-2-(4-methyl-1-oxo-1,3-dihydroisobenzofuran-5-yl)ethyl)-2,8-diazaspiro[4.5]decan-1-one]	0.0549
Cc1c([C@@H](O)CN2CCC3(CC2)CC(=O)N(c2cn4ncnc4cn2)C3)ccc2c1COC2=O [Example 39, (R)-2-([1,2,4]triazolo[1,5-a]pyrazin-6-yl)-8-(2-hydroxy-2-(4-methyl-1-oxo-1,3-dihydroisobenzofuran-5-yl)ethyl)-2,8-diazaspiro[4.5]decan-3-one]	0.458
Cc1c([C@@H](O)CN2CCC3(CC2)CC(=O)N(c2ccc4nc(C(F)(F)F)nn4c2)C3)ccc2c1COC2=O [Example 40]	0.894
Cc1c([C@@H](O)CN2CCC3(CC2)CC(=O)N(c2cnn4ncccc24)C3)ccc2c1COC2=O [Example 41]	0.336
N#Cc1ccc(C(O)CN2CCC3(CC2)CCN(c2ccc4nncn4n2)C3)nc1 (centres unmarked) [Example 42]	0.117
N#Cc1ccc(C(O)CN2CCC3(CC2)CCN(c2ccc4nncn4n2)C3)nc1 (centres unmarked) [Example 43]	0.361
COc1cc([C@H](O)CN2CCC3(CC2)CCN(c2ccc4nncn4n2)C3)ncc1C#N [Example 44]	0.124
COc1cc([C@@H](O)CN2CCC3(CC2)CCN(c2ccc4nncn4n2)C3)ncc1C#N [Example 45, 6-(2-(2-([1,2,4]triazolo[4,3-b]pyridazin-6-yl)-2,8-diazaspiro[4.5]decan-8-yl)-1-hydroxyethyl)-4-methoxynicotinonitrile]	0.0459
Cc1nc(C(O)CN2CCC3(CC2)CCN(c2ccc4nncn4n2)C3)ccc1C#N (centres unmarked) [Example 46, 6-(2-(2-([1,2,4]triazolo[4,3-b]pyridazin-6-yl)-2,8-diazaspiro[4.5]decan-8-yl)-1-hydroxyethyl)-2-methylnicotinonitrile]	0.077
Cc1nc(C(O)CN2CCC3(CC2)CCN(c2ccc4nncn4n2)C3)ccc1C#N (centres unmarked) [Example 47]	0.147
Cc1cc(C#N)cnc1C(O)CN1CCC2(CC1)CCN(c1ccc3nncn3n1)C2 (centres unmarked) [Example 48]	0.0881
Cc1cc(C#N)cnc1C(O)CN1CCC2(CC1)CCN(c1ccc3nncn3n1)C2 (centres unmarked) [Example 49]	0.208
COc1cc(C(O)CN2CCC3(CC2)CCN(c2ccc4nncn4n2)C3)ccc1C#N (centres unmarked) [Example 50]	0.0415
COc1cc(C(O)CN2CCC3(CC2)CCN(c2ccc4nncn4n2)C3)ccc1C#N (centres unmarked) [Example 51]	0.0487
COc1cc(C(O)CN2CCC3(CC2)CCN(c2ccc4nncn4n2)C3)c(Cl)cc1C#N (centres unmarked) [Example 56]	0.0276
Cc1nc(C(O)CN2CCC3(CC2)CC(=O)N(c2ccc4nncn4n2)C3)ccc1C#N (centres unmarked) [Example 57]	0.248
COc1cc(C(O)CN2CCC3(CC2)CC(=O)N(c2ccc4nncn4n2)C3)ccc1C#N (centres unmarked) [Example 58]	0.413
N#Cc1ccc(C(O)CN2CCC3(CC2)CC(=O)N(c2ccc4nncn4n2)C3)nc1 (centres unmarked) [Example 59]	0.412
COc1cc([C@H](O)CN2CCC3(CC2)CC(=O)N(c2ccc4nncn4n2)C3)ncc1C#N [Example 60]	0.78

SMILES	IC50 [µM]
COc1cc([C@@H](O)CN2CCC3(CC2)CC(=O)N(c2ccc4nncn4n2)C3)ncc1C#N [Example 61]	0.228
N#Cc1ccc(C(O)CN2CCC3(CCN(c4ccc5nncn5n4)CC3)C2)nc1 (centres unmarked) [Example 62]	0.129
N#Cc1ccc(C(O)CN2CCC3(CCN(c4ccc5nncn5n4)CC3)C2)nc1 (centres unmarked) [Example 63]	0.154
COc1cc([C@H](O)CN2CCC3(CCN(c4ccc5nncn5n4)CC3)C2)ncc1C#N [Example 64]	0.0918
Cc1cc(C#N)cnc1C(O)CN1CCC2(CCN(c3ccc4nncn4n3)CC2)C1 (centres unmarked) [Example 65, 6-(2-(8-([1,2,4]triazolo[4,3-b]pyridazin-6-yl)-2,8-diazaspiro[4.5]decan-2-yl)-1-hydroxyethyl)-5-methylnicotinonitrile]	0.0347
Cc1cc(C#N)cnc1C(O)CN1CCC2(CCN(c3ccc4nncn4n3)CC2)C1 (centres unmarked) [Example 66]	0.0728
Cc1nc(C(O)CN2CCC3(CCN(c4ccc5nncn5n4)CC3)C2)ccc1C#N (centres unmarked) [Example 67, 6-(2-(8-([1,2,4]triazolo[4,3-b]pyridazin-6-yl)-2,8-diazaspiro[4.5]decan-2-yl)-1-hydroxyethyl)-2-methylnicotinonitrile]	0.0642
Cc1nc(C(O)CN2CCC3(CCN(c4ccc5nncn5n4)CC3)C2)ccc1C#N (centres unmarked) [Example 68]	0.0859
Cc1c([C@@H](O)CN2CCC3(CCN(c4ccc5nncn5n4)CC3)C2)ccc2c1COC2=O [Example 70, (R)-5-(2-(8-([1,2,4]triazolo[4,3-b]pyridazin-6-yl)-2,8-diazaspiro[4.5]decan-2-yl)-1-hydroxyethyl)-4-methylisobenzofuran-1(3H)-one]	0.031
COc1cc([C@@H](O)CN2CCC3(CC2)CCN(c2ccc4nnnn4n2)C3)ncc1C#N [Example 71, (S)-6-(1-hydroxy-2-(2-(tetrazolo[1,5-b]pyridazin-6-yl)-2,8-diazaspiro[4.5]decan-8-yl)ethyl)-4-methoxynicotinonitrile]	0.208
COc1cc([C@@H](O)CN2CCC3(CC2)CCN(c2nn4cnnc4s2)C3)ncc1C#N [Example 72]	0.25
COc1cc([C@@H](O)CN2CCC3(CC2)CCN(c2ccc4nncn4c2)C3)ncc1C#N [Example 73]	0.221
Cc1c([C@@H](O)CN2CCC3(CC2)CCN(c2ccc4nncn4n2)C3=O)ccc2c1COC2=O [Example 74]	0.116
COc1cc([C@@H](O)CN2CCC3(CC2)CCN(c2ccc4nncn4n2)C3=O)ncc1C#N [Example 75]	0.608
Cc1c([C@@H](O)CN2CCC3(CCCN(c4ccc5nncn5n4)C3)CC2)ccc2c1COC2=O [Example 76]	0.0976
COc1cc([C@H](O)CN2CCC3(CC2)CCN(c2ccc4c(c2C)COC4=O)C3)ncc1C#N [Example 77, (R)-6-(1-hydroxy-2-(2-(4-methyl-1-oxo-1,3-dihydroisobenzofuran-5-yl)-2,8-diazaspiro[4.5]decan-8-yl)ethyl)-4-methoxynicotinonitrile]	0.0664
Cc1nc(-n2cnnn2)ccc1[C@@H](O)CN1CCC2(CC1)CCN(c1ccc3c(c1C)COC3=O)C2 [Example 78]	0.622
Cc1c([C@@H](O)CN2CCC3(CC2)CCN(c2ccc4c(c2C)COC4=O)C3)ccc2c1COC2=O [Example 79, (R)-5-(1-hydroxy-2-(2-(4-methyl-1-oxo-1,3-dihydroisobenzofuran-5-yl)-2,8-diazaspiro[4.5]decan-8-yl)ethyl)-4-methylisobenzofuran-1(3H)-one]	0.019
Cc1c([C@@H](O)CN2CCC3(CC2)CN(c2ccc4c(c2C)COC4=O)C(=O)O3)ccc2c1COC2=O [Example 81, (R)-8-(2-hydroxy-2-(4-methyl-1-oxo-1,3-dihydroisobenzofuran-5-yl)ethyl)-3-(4-methyl-1-oxo-1,3-dihydroisobenzofuran-5-yl)-1-oxa-3,8-diazaspiro[4.5]decan-2-one]	0.0914
Cc1c([C@@H](O)CN2CCC3(CC2)CCN(c2snc4ccccc24)C3=O)ccc2c1COC2=O [Example 82]	0.0326
